Assay [1] concerns trained judges (expert taste panel). Kind of assay: Double-blind sequential monadic sweetness intensity test, sip and spit (Example 1 protocol). The assay is classed as in vivo, human. An excerpt:
Subjects were given three samples to evaluate. Each subject was directed to swirl the first sample in his or her mouth for 3-5 seconds, expectorate the entire sample into a discard cup, and then assess the sweetness intensity of the sample. The intensity was rated on a score card by marking a numerical value along a scale from 0 to 8 (e.g., 0=none, 2=slight, 4=definite, 8=very strong). Following the decision regarding the sweetness intensity, subjects were instructed to rinse their mouth with water and spit in the discard cup. Subjects then were given unsalted crackers to cleanse the palate. A period of 10 minutes elapsed between presentations of each sample to reduce the potential influence of residual taste effects. A second sample was then presented and evaluated as above and the same procedure was followed until all three products were evaluated. Sample presentation was randomized to avoid order of presentation bias. To participate in the sensory panel, judges or subjects were chosen from an expert taste panel. These subjects were screened for taste acuity and were trained in evaluating solutions using the sip and spit protocol and were trained in using a rating ballot. The number of judges who participated in the study was 20. The female subjects were all non-pregnant and all volunteers were of <55 years of age with no history of allergy to sucrose. Judges were asked to execute an informed consent form. Specifically, the following instructions were given to the judges: Please take a sip of water. Carefully take the cap off the sample cup placed in front of you. Sip, swirl for 3-5 seconds, and then spit the sample into the cup provided, then assess the intensity of the sweetness of the sample. Please evaluate the sample for the intensity of the sweet flavor and put a vertical mark on the number that best describes the intensity. Rinse your mouth with the water provided and spit into the discard cup. Use crackers provided to cleanse your palate before evaluating the next sample. If any other flavor was present in the sample please describe it. Please rinse your mouth again several times and have some more water and unsalted crackers. You will now have a rest period of 10 minutes before you will be given the next sample.

The conditions of assay [2]: cited from earlier work.
Assay [3] has as its system 10 panelists. Kind of assay: Quantitative taste profile by trained panelists (Example 11). The assay is classed as in vivo, human. The procedure: The taste of 150, 300, and 600 μM Reb C was evaluated by a test group. 10 panelists were trained over a period of a few weeks to provide a quantitative flavor profile of Reb C. Panelists first were trained using standard tastants representing the different taste modalities given in FIG. 10 (i.e., sweet, bitter, salt, sour, and licorice). They then were trained to use the scales when flavors were mixed together. All intensity ratings are on scales ranging from 0 (no taste) to 8 (highest intensity). The intensity rating for sweet is essentially the same as used in Examples 1 and 6. The taste profiles were obtained for 150, 300, and 600 μM Reb C. Reb A (0.2 mg/ml, a concentration used in some food/beverage applications for sweetening) was also evaluated in the test for comparison. The scale is not linear at the bottom. A rating of 1 is around the threshold for sweetness detection.

Assay [4] deals with test group having five (5) subjects. Kind of assay: Forced-choice taste test of Reb C water solution against water. The assay is classed as in vivo, human. The note with it: 250 μM Reb C water solution. The procedure: The taste of a 250 μM Reb C solution was evaluated by a test group having five (5) subjects as follows (Forced-choice): Subjects were presented with 2 cups, each containing 10 ml of either 250 μM Reb C water solution or water (room temperature). […] Subjects were asked to sip most or all of the 10 ml from the first cup, swish the liquid in their oral cavity, and expectorate into a cup, then rinse their mouths vigorously with water. Soon thereafter, the contents of the second cup were sampled in the same manner. Then, subjects were asked to choose the sweeter of the two samples, or if not sweet, to describe the qualitative taste profile of the sample having a detectable taste.

The test system of assay [5] is trained judges (expert taste panel). Kind of assay: Double-blind sequential monadic sweetness intensity test, taste and swallow (Example 6 protocol), beverages and solutions. The class given is in vivo, human. Conditions: for intrinsic sweetness in unsweetened beverage: Reb C at 190 ppm or below (95, 190, 285 ppm tested).
In assay [6] the test system is test group having four (4) subjects. The assay can be described thus: Open qualitative taste report of Reb C water solutions. The assay is classed as in vivo, human. The note with it: 250 and 300 μM Reb C in water, subjects 1 to 4. The procedure:
The taste of 250 μM and 300 μM Reb C solutions were evaluated as follows by another test group having four (4) subjects as follows: 10 ml solutions of 250 and 300 μM Reb C in water were sampled by four subjects who were asked to report their qualitative taste experience of the solutions. […] The subjects have the following qualitative taste descriptions: […]

The conditions of assay [7]: cited from earlier work. The source holds these as a separate data set.
Where [8] appears, read: 5% (w/v-%) fructose solution + 300 μM enhancer, versus 7% (w/v-%) fructose.
Setting [9] is: 5% (w/v-%) sucrose solution + 300 μM enhancer, versus 7% (w/v-%) sucrose, scale 0 to 8.
Setting [10] is: 8% (w/v-%) sucrose solution + 300 μM enhancer, versus 11% (w/v-%) sucrose.

Where “and” joins values, the source holds several entries; their conditions need not be identical. Identical values can stand only once. Entries after “also recorded” stand apart in the source; their conditions may differ. Like-named read-outs stand apart in the source and are kept apart here.

`C=C1C[C@@]23CC[C@H]4[C@@](C)(CCC[C@@]4(C)C(=O)O[C@@H]4O[C@H](CO)[C@@H](O)[C@H](O)[C@H]4O)[C@@H]2CC[C@]1(O[C@@H]1O[C@H](CO)[C@@H](O)[C@H](O)[C@H]1O[C@@H]1O[C@@H](C)[C@H](O)[C@@H](O)[C@H]1O)C3` [Dulc A, dulcoside A]: the “sweetness of sweetener solution with enhancer compared with higher sweetener concentration” value in assay [1] (setting [8]) is on record as “achieved that of a 7% (w/v-%) fructose solution; also recorded: acts synergistically”; in assay [1] (setting [9]) it was “achieved that of a 7% (w/v-%) sucrose solution; also recorded: acts synergistically”; in assay [1] (setting [10]), “approached that of an 11% (w/v-%) sucrose solution; also recorded: acts synergistically”. In addition, the off-tastes result in assay [1] (8% (w/v-%) sucrose solution with 300 μM Dulc A) is “No off-tastes were detected”. Moreover, in assay [1] (8% (w/v-%) sucrose solution with 300 μM Dulc A, scale 0 to 8), the “mean sweetness intensity score” value was found to be 6.3. The “sweetness relative to sucrose” value in assay [2] (known values, background) is on record as 30 times sweeter than sucrose.
Turning to `C=C1CC23CCC4C(C)(C(=O)OC5OC(CO)C(O)C(O)C5O)CCCC4(C)C2CCC1(OC1OC(CO)C(O)C(OC2OC(CO)C(O)C(O)C2O)C1OC1OC(C)C(O)C(O)C1O)C3` (stereo not drawn) [Reb C, rebaudioside C], the “sweetness of sweetener solution with enhancer compared with higher sweetener concentration” value in assay [1] (setting [8]) was “close to that of a 7% (w/v-%) fructose solution; also recorded: acts synergistically”; in assay [1] (setting [9]), “indistinguishable from that of a 7% (w/v-%) sucrose solution; also recorded: acts synergistically”; in assay [1] (8% (w/v-%) sucrose solution + 150 μM Reb C, versus 8% and 11% (w/v-%) sucrose), “between that of the 8% (w/v-%) sucrose solution and that of an 11% (w/v-%) sucrose solution; also recorded: significantly enhanced”; in assay [1] (setting [10]), “close to that of an 11% (w/v-%) sucrose solution; also recorded: significantly enhanced”; in assay [5] (7.14% w/v erythritol water solution + 285 ppm (300 μM) Reb C, versus 7.14% and 10% erythritol), “significantly sweeter than the 7.14% erythritol solution alone, but did not achieve the sweetness of a 10% erythritol solution; also recorded: acts synergistically”; in assay [5] (8% (w/v-%) fructose solution + 300 μM Reb C, versus 8% and 11% fructose), “between that of the 8% (w/v-%) fructose solution and that of an 11% (w/v-%) fructose solution”. Moreover, in assay [1] (8% (w/v-%) sucrose solution with 150 μM Reb C, scale 0 to 8), the “mean sweetness intensity score” value came to 6.10. Also, the “unpleasant tastes, bitter and licorice” value in assay [3] (150, 300 and 600 μM Reb C alone) is “barely detected”; in assay [3] (Reb C combined with sugar), “undetected”. Moreover, in assay [3] (150, 300 and 600 μM Reb C, scale 0 to 8), the intrinsic sweetness result is on record as “little or no intrinsic sweetness”. Moreover, the “identification of the sample against water (forced-choice)” value in assay [4] (10 ml, room temperature, five subjects) is reported as “All subjects correctly identified the sample containing Reb C”. For the same compound, the “qualitative taste description (one per subject)” value is on record as “Metallic, not sweet; also recorded: Aversive (“Nasty”); also recorded: Slight sweet, astringent; also recorded: Faintly sweet; also recorded: Slight sweet/licorice” in assay [4] (subjects 1 to 5) and “bitter and/or licorice” in assay [6]. The “statistical significance of the sweetness enhancing effect” value in assay [5] (8% (w/v-%) fructose solution + 300 μM Reb C) is listed as “not statistically significant”. The “sweetness of beverage with enhancer compared with higher sweetener concentration” value in assay [5] (cola beverage buffered with citric acid, 10.39% (w/v-%) HFCS55 + 190 ppm Reb C, versus 14.29% HFCS55) was “significantly increases the sweetness intensity to that of 14.29% HFCS55; also recorded: synergistically enhanced”; in assay [5] (cola beverage buffered with phosphoric acid, 10.39% (w/v-%) HFCS55 + 310 ppm Reb C, versus 14.29% HFCS55), “increased significantly the sweetness intensity of a cola beverage containing 10.39% (w/v-%) HFCS55, but did not reach the sweetness of a 14.29% (w/v-%) HFCS55 cola beverage; also recorded: enhances the sweetness intensity”; in assay [5] (iced tea, 8% (w/v-%) sucrose + 300 μM Reb C, versus 8% and 11% sucrose) it was “between that of the 8% (w/v-%) solution and that of an 11% (w/v-%) sucrose solution; also recorded: enhances the sweetness intensity”; in assay [5] (iced tea, 10.39% (w/v-%) HFCS55 + 300 μM Reb C, versus 14.29% HFCS55) it was “indistinguishable from that of a 14.29% (w/v-%) HFCS55 (HFCS) solution; also recorded: acts synergistically”; in assay [5] (lemon-lime soda (citric acid), 10.39% (w/v-%) HFCS55 + 190 ppm Reb C, versus 14.29% HFCS55) it was “did not reach the sweetness of a 14.29% (w/v-%) HFCS55 solution; also recorded: synergistically enhanced”. In addition, in assay [5] (cola beverage buffered with phosphoric acid, 10.39% (w/v-%) HFCS55 + 190 ppm Reb C), the “sweetness of beverage with enhancer compared with beverage alone” value is given as “is not higher than that of 10.39% (w/v-%) HFCS55 cola beverage alone”. The “intrinsic sweetness in unsweetened beverage” value in assay [5] (unsweetened cola beverage) and in assay [5] (unsweetened lemon-lime soda (FIG. 16)) was “does not increase the sweetness of an unsweetened cola beverage” throughout.
Turning to `C=C1C[C@@]23CC[C@H]4[C@@](C)(CCC[C@@]4(C)C(=O)O[C@@H]4O[C@H](CO)[C@@H](O)[C@H](O)[C@H]4O)[C@@H]2CC[C@]1(O[C@@H]1O[C@H](CO)[C@@H](O)[C@H](O[C@@H]2O[C@H](CO)[C@@H](O)[C@H](O)[C@H]2O)[C@H]1O[C@@H]1O[C@H](CO)[C@@H](O)[C@H](O)[C@H]1O)C3` [rebaudioside A], the “effect in mixtures with other sweeteners” value in assay [7] (mixture with sucrose, sweetness intensity equivalent to 7% (w/v-%) sucrose) is recorded as “additive effect”; in assay [7] (mixtures with fructose and glucose, sweetness intensity equivalent to 3% (w/v-%) sucrose), “additive effect”; in assay [7] (mixtures with fructose, glucose and sucrose, sweetness intensity equivalent to 5% (w/v-%) sucrose) it was “additive effect”; in assay [7] (mixtures with glucose and fructose, sweetness intensity equivalent to 7% (w/v-%) sucrose), “suppressive effect”; in assay [7] (mixtures with sucrose, sweetness intensity equivalent to 3% (w/v-%) sucrose) it was “synergistic effect”. For the same compound, the “aftertaste among the diterpene glycosides of Stevia extracts” value in assay [2] (bitter and licorice-like aftertaste) is on record as “least aftertaste”.
With `OC[C@H]1O[C@@](CO)(O[C@H]2O[C@H](CO)[C@@H](O)[C@H](O)[C@H]2O)[C@@H](O)[C@@H]1O` [sucrose, α-D-glucopyranosyl-(1→2)-β-D-fructofuranose, reference compound], the “mean sweetness intensity score” value was 5.30 and 5.0 in assay [1] (8% (w/v-%) sucrose solution alone (low-concentration comparator), scale 0 to 8); 6.95 and 6.7 in assay [1] (11% (w/v-%) sucrose solution alone (high-concentration comparator), scale 0 to 8).
